Where no end group is shown, it is not given here. [ ]: non-standard residue; d: D form. Aib = CC(C)(N)C(=O)O
Test system: db/db mice
Assay: Blood glucose lowering in db/db mice (Example 7)
Format: in vivo
Settings: db/db male mice, 30 nmol/kg subcutaneous single dose, blood glucose 0-10 hours, AUC, vs PBS control; FIG. 1
Experimental: db/db mice were housed in animal feeding rooms with strictly controlled environmental conditions. The temperature in the feeding room was maintained at 20-24° C. and the humidity was maintained at 40-70%. The temperature and humidity of the feeding room were monitored in real time by a temperature and humidity meter, and the temperature and humidity were recorded twice a day (once in the morning and once in the afternoon). The lighting in the animal feeding room was controlled by an electronic timing light-on system. The lights were turned on for 12 hours and turned off for 12 hours every day (on at 7:00 in the morning and off at 19:00 in the afternoon). During the experiment, the mice were individually housed in each cage, and toys were provided to the mice in each cage. During the experiment mice had free access to water. The db/db male mice (6 weeks old) were given one week to acclimate to the environmental conditions of the test facility. Baseline blood glucose and body weight were recorded for three days before the test (−3 day to −1 day). The mice were randomly grouped based on three-day blood glucose and body weight, with 6 mice in each group. The mice were injected subcutaneously with PBS (5 ml/kg, control group) or the peptide compounds 1, 2, 8, 16, 18, 19, 24, and 36 (30 nmol/kg) respectively at 10:00 am. Blood was collected at 0 hour before drug administration, and 1, 2, 4, 6, 8 and 10 hours after administration, and blood glucose was measured using a OneTouch glucose meter (Johnson & Johnson) and test strips. Blood glucose curves were plotted with time as the abscissa and the blood glucose value at different time point as the ordinate, the areas under the curve (AUC) were calculated, and the hypoglycemic effects and duration of time of the peptide compounds were compared.

Row | Substance | blood glucose
1 | Y(aib)EGTFTSDLSI(aib)LEKEAVRLFIEWLLAGGPSSGAPPPS-NH2 (YXEGTFTSDLSIXLEKEAVRLFIEWLLAGGPSSGAPPPS; Aib; C-terminal amide; MOD_RES (2)..(2) X=aminoisobutyric aicd; MOD_RES (13)..(13) X=aminoisobutyric aicd; MOD_RES (39)..(39) AMIDATION, C-termianl amidation) [Compound 36] | significantly reduce blood glucose
2 | Y(aib)EGTFTSDLSIQLEKEAARLFIEWLLAGGPSSGAPPPS-NH2 (Y[Aib]EGTFTSDLSIQLEKEAARLFIEWLLAGGPSSGAPPPS-NH2; N-terminus assumed; SMILES CC[C@H](C)[C@H](NC(=O)[C@H](Cc1ccccc1)NC(=O)[C@H](CC(C)C)NC(=O)[C@H](CCCNC(=N)N)NC(=O)[C@H](C)NC(=O)[C@H](C)NC(=O)[C@H](CCC(=O)O)NC(=O)[C@H](CCCCN)NC(=O)[C@H](CCC(=O)O)NC(=O)[C@H](CC(C)C)NC(=O)[C@H](CCC(N)=O)NC(=O)[C@@H](NC(=O)[C@H](CO)NC(=O)[C@H](CC(C)C)NC(=O)[C@H](CC(=O)O)NC(=O)[C@H](CO)NC(=O)[C@@H](NC(=O)[C@H](Cc1ccccc1)NC(=O)[C@@H](NC(=O)CNC(=O)[C@H](CCC(=O)O)NC(=O)C(C)(C)NC(=O)[C@@H](N)Cc1ccc(O)cc1)[C@@H](C)O)[C@@H](C)O)[C@@H](C)CC)C(=O)N[C@@H](CCC(=O)O)C(=O)N[C@@H](Cc1c[nH]c2ccccc12)C(=O)N[C@@H](CC(C)C)C(=O)N[C@@H](CC(C)C)C(=O)N[C@@H](C)C(=O)NCC(=O)NCC(=O)N1CCC[C@H]1C(=O)N[C@@H](CO)C(=O)N[C@@H](CO)C(=O)NCC(=O)N[C@@H](C)C(=O)N1CCC[C@H]1C(=O)N1CCC[C@H]1C(=O)N1CCC[C@H]1C(=O)N[C@@H](CO)C(N)=O) [Compound 18] | significantly reduce blood glucose
3 | Y(aib)EGTFTSDLSIQLEKEAVKLFIEWLLAGGPSSGAPPPS-NH2 (Y[Aib]EGTFTSDLSIQLEKEAVKLFIEWLLAGGPSSGAPPPS-NH2; N-terminus assumed; SMILES CC[C@H](C)[C@H](NC(=O)[C@H](CO)NC(=O)[C@H](CC(C)C)NC(=O)[C@H](CC(=O)O)NC(=O)[C@H](CO)NC(=O)[C@@H](NC(=O)[C@H](Cc1ccccc1)NC(=O)[C@@H](NC(=O)CNC(=O)[C@H](CCC(=O)O)NC(=O)C(C)(C)NC(=O)[C@@H](N)Cc1ccc(O)cc1)[C@@H](C)O)[C@@H](C)O)C(=O)N[C@@H](CCC(N)=O)C(=O)N[C@@H](CC(C)C)C(=O)N[C@@H](CCC(=O)O)C(=O)N[C@@H](CCCCN)C(=O)N[C@@H](CCC(=O)O)C(=O)N[C@@H](C)C(=O)N[C@H](C(=O)N[C@@H](CCCCN)C(=O)N[C@@H](CC(C)C)C(=O)N[C@@H](Cc1ccccc1)C(=O)N[C@H](C(=O)N[C@@H](CCC(=O)O)C(=O)N[C@@H](Cc1c[nH]c2ccccc12)C(=O)N[C@@H](CC(C)C)C(=O)N[C@@H](CC(C)C)C(=O)N[C@@H](C)C(=O)NCC(=O)NCC(=O)N1CCC[C@H]1C(=O)N[C@@H](CO)C(=O)N[C@@H](CO)C(=O)NCC(=O)N[C@@H](C)C(=O)N1CCC[C@H]1C(=O)N1CCC[C@H]1C(=O)N1CCC[C@H]1C(=O)N[C@@H](CO)C(N)=O)[C@@H](C)CC)C(C)C) [Compound 24] | significantly reduce blood glucose
4 | Y(aib)EGTFTSDLSIQLEKEAVRLFIEWLLAGGPSSGAPPPS-NH2 (Y[Aib]EGTFTSDLSIQLEKEAVRLFIEWLLAGGPSSGAPPPS-NH2; N-terminus assumed; SMILES CC[C@H](C)[C@H](NC(=O)[C@H](CO)NC(=O)[C@H](CC(C)C)NC(=O)[C@H](CC(=O)O)NC(=O)[C@H](CO)NC(=O)[C@@H](NC(=O)[C@H](Cc1ccccc1)NC(=O)[C@@H](NC(=O)CNC(=O)[C@H](CCC(=O)O)NC(=O)C(C)(C)NC(=O)[C@@H](N)Cc1ccc(O)cc1)[C@@H](C)O)[C@@H](C)O)C(=O)N[C@@H](CCC(N)=O)C(=O)N[C@@H](CC(C)C)C(=O)N[C@@H](CCC(=O)O)C(=O)N[C@@H](CCCCN)C(=O)N[C@@H](CCC(=O)O)C(=O)N[C@@H](C)C(=O)N[C@H](C(=O)N[C@@H](CCCNC(=N)N)C(=O)N[C@@H](CC(C)C)C(=O)N[C@@H](Cc1ccccc1)C(=O)N[C@H](C(=O)N[C@@H](CCC(=O)O)C(=O)N[C@@H](Cc1c[nH]c2ccccc12)C(=O)N[C@@H](CC(C)C)C(=O)N[C@@H](CC(C)C)C(=O)N[C@@H](C)C(=O)NCC(=O)NCC(=O)N1CCC[C@H]1C(=O)N[C@@H](CO)C(=O)N[C@@H](CO)C(=O)NCC(=O)N[C@@H](C)C(=O)N1CCC[C@H]1C(=O)N1CCC[C@H]1C(=O)N1CCC[C@H]1C(=O)N[C@@H](CO)C(N)=O)[C@@H](C)CC)C(C)C) [Compound 19] | significantly reduce blood glucose
5 | Y(aib)EGTFTSDYSIYLDEEAVKLFVNWLIAGGPSSGAPPPS-NH2 (Y[Aib]EGTFTSDYSIYLDEEAVKLFVNWLIAGGPSSGAPPPS-NH2; N-terminus assumed; SMILES CC[C@H](C)[C@H](NC(=O)[C@H](CC(C)C)NC(=O)[C@H](Cc1c[nH]c2ccccc12)NC(=O)[C@H](CC(N)=O)NC(=O)[C@@H](NC(=O)[C@H](Cc1ccccc1)NC(=O)[C@H](CC(C)C)NC(=O)[C@H](CCCCN)NC(=O)[C@@H](NC(=O)[C@H](C)NC(=O)[C@H](CCC(=O)O)NC(=O)[C@H](CCC(=O)O)NC(=O)[C@H](CC(=O)O)NC(=O)[C@H](CC(C)C)NC(=O)[C@H](Cc1ccc(O)cc1)NC(=O)[C@@H](NC(=O)[C@H](CO)NC(=O)[C@H](Cc1ccc(O)cc1)NC(=O)[C@H](CC(=O)O)NC(=O)[C@H](CO)NC(=O)[C@@H](NC(=O)[C@H](Cc1ccccc1)NC(=O)[C@@H](NC(=O)CNC(=O)[C@H](CCC(=O)O)NC(=O)C(C)(C)NC(=O)[C@@H](N)Cc1ccc(O)cc1)[C@@H](C)O)[C@@H](C)O)[C@@H](C)CC)C(C)C)C(C)C)C(=O)N[C@@H](C)C(=O)NCC(=O)NCC(=O)N1CCC[C@H]1C(=O)N[C@@H](CO)C(=O)N[C@@H](CO)C(=O)NCC(=O)N[C@@H](C)C(=O)N1CCC[C@H]1C(=O)N1CCC[C@H]1C(=O)N1CCC[C@H]1C(=O)N[C@@H](CO)C(N)=O) [Compound 2] | significantly reduce blood glucose
6 | Y(aib)EGTFTSDYSIYLDEEAVRLFVNWLIAGGPSSGAPPPS-NH2 (Y[Aib]EGTFTSDYSIYLDEEAVRLFVNWLIAGGPSSGAPPPS-NH2; N-terminus assumed; SMILES CC[C@H](C)[C@H](NC(=O)[C@H](CC(C)C)NC(=O)[C@H](Cc1c[nH]c2ccccc12)NC(=O)[C@H](CC(N)=O)NC(=O)[C@@H](NC(=O)[C@H](Cc1ccccc1)NC(=O)[C@H](CC(C)C)NC(=O)[C@H](CCCNC(=N)N)NC(=O)[C@@H](NC(=O)[C@H](C)NC(=O)[C@H](CCC(=O)O)NC(=O)[C@H](CCC(=O)O)NC(=O)[C@H](CC(=O)O)NC(=O)[C@H](CC(C)C)NC(=O)[C@H](Cc1ccc(O)cc1)NC(=O)[C@@H](NC(=O)[C@H](CO)NC(=O)[C@H](Cc1ccc(O)cc1)NC(=O)[C@H](CC(=O)O)NC(=O)[C@H](CO)NC(=O)[C@@H](NC(=O)[C@H](Cc1ccccc1)NC(=O)[C@@H](NC(=O)CNC(=O)[C@H](CCC(=O)O)NC(=O)C(C)(C)NC(=O)[C@@H](N)Cc1ccc(O)cc1)[C@@H](C)O)[C@@H](C)O)[C@@H](C)CC)C(C)C)C(C)C)C(=O)N[C@@H](C)C(=O)NCC(=O)NCC(=O)N1CCC[C@H]1C(=O)N[C@@H](CO)C(=O)N[C@@H](CO)C(=O)NCC(=O)N[C@@H](C)C(=O)N1CCC[C@H]1C(=O)N1CCC[C@H]1C(=O)N1CCC[C@H]1C(=O)N[C@@H](CO)C(N)=O) [Compound 1] | significantly reduce blood glucose
7 | Y(aib)EGTFTSDYSIYLEKEAVRLFIEWLIAGGPSSGAPPPS-NH2 (Y[Aib]EGTFTSDYSIYLEKEAVRLFIEWLIAGGPSSGAPPPS-NH2; N-terminus assumed; SMILES CC[C@H](C)[C@H](NC(=O)[C@H](CC(C)C)NC(=O)[C@H](Cc1c[nH]c2ccccc12)NC(=O)[C@H](CCC(=O)O)NC(=O)[C@@H](NC(=O)[C@H](Cc1ccccc1)NC(=O)[C@H](CC(C)C)NC(=O)[C@H](CCCNC(=N)N)NC(=O)[C@@H](NC(=O)[C@H](C)NC(=O)[C@H](CCC(=O)O)NC(=O)[C@H](CCCCN)NC(=O)[C@H](CCC(=O)O)NC(=O)[C@H](CC(C)C)NC(=O)[C@H](Cc1ccc(O)cc1)NC(=O)[C@@H](NC(=O)[C@H](CO)NC(=O)[C@H](Cc1ccc(O)cc1)NC(=O)[C@H](CC(=O)O)NC(=O)[C@H](CO)NC(=O)[C@@H](NC(=O)[C@H](Cc1ccccc1)NC(=O)[C@@H](NC(=O)CNC(=O)[C@H](CCC(=O)O)NC(=O)C(C)(C)NC(=O)[C@@H](N)Cc1ccc(O)cc1)[C@@H](C)O)[C@@H](C)O)[C@@H](C)CC)C(C)C)[C@@H](C)CC)C(=O)N[C@@H](C)C(=O)NCC(=O)NCC(=O)N1CCC[C@H]1C(=O)N[C@@H](CO)C(=O)N[C@@H](CO)C(=O)NCC(=O)N[C@@H](C)C(=O)N1CCC[C@H]1C(=O)N1CCC[C@H]1C(=O)N1CCC[C@H]1C(=O)N[C@@H](CO)C(N)=O) [Compound 16] | significantly reduce blood glucose

— US12612441B2, “Polypeptide and therapeutic uses thereof” (Vitalixir (Beijing) Co., Ltd, priority 2019, dated 2026)
